pIC50: −log10 of the molar value.
System: Aβ42 production in H4 APP751 SWE clone 8.20 cells
Assay: Cellular assay for inhibition of Aβ1-42 production
Format: cell-based
Settings: H4 cells stably transfected with APP751 Swedish mutation (clone 8.20), 19 h incubation
Procedure: H4 cells stably transfected with APP751 containing the Swedish mutation (H4 APP751 SWE clone 8.20, developed at BMS) were maintained in log phase through twice weekly passage at a 1:20 split. […] Following incubation for 19 h in 5% CO2 at 37° C., plates were briefly centrifuged (1000 rpm, 5 min). A 10 μl aliquot from each well was transferred to a second assay plate (Costar 3709) for Aβ40 measurements. Antibody cocktails were freshly prepared by dilution into 40 mM Tris-HCl (pH 7.4) with 0.2% BSA and added to assay plates. For Aβ42 measurements, antibodies specific for the Aβ42 neoepitope (565, developed at BMS; conjugated to the Wallac reagent (Perkin Elmer)) and the N-terminal sequence of Aβ peptide (26D6, developed at SIBIA; conjugated to APC (Perkin Elmer)) were mixed and 20 μl of the mixture was added to each well of the incubated cell plate yielding a final concentration of 0.8 ng/well 565 and 75 ng/well 26D6. […] Assay plates containing antibodies were sealed with aluminum foil and incubated overnight at 4° C. Signal was determined using a Viewlux counter (Perkin Elmer) and IC50 values determined using curve fitting in CurveMaster (Excel Fit based).

| Compound | pIC50 |
| --- | --- |
| NC1=N[C@@]2(c3cc(NC(=O)c4ccc(F)cn4)ccc3F)OCC[C@H]2CS1 (racemic) [Example 4, (±)-N-(3-((4aR,7aR)-2-amino-4a,5,6,7a-tetrahydro-4H-furo[2,3-d][1,3]thiazin-7a-yl)-4-fluorophenyl)-5-fluoropicolinamide] | 6.33 |
| NC1=N[C@@]2(c3cc(NC(=O)c4ccc(Cl)cn4)ccc3F)OCC[C@H]2CS1 [Example 2, N-(3-((4aR,7aR)-2-amino-4a,5,6,7a-tetrahydro-4H-furo[2,3-d][1,3]thiazin-7a-yl)-4-fluorophenyl)-5-chloropicolinamide] | 7.62 |
| N#Cc1ccc(C(=O)Nc2ccc(F)c([C@@]34N=C(N)SC[C@@H]3CCO4)c2)nc1 [Example 3, N-(3-((4aR,7aR)-2-amino-4a,5,6,7a-tetrahydro-4H-furo[2,3-d][1,3]thiazin-7a-yl)-4-fluorophenyl)-5-cyanopicolinamide] | 7.14 |

Results, then the compound that gave them:

| pIC50 | Compound |
| --- | --- |
| 6.07 | NC1=N[C@@]2(c3cc(NC(=O)c4ccccn4)ccc3F)OCC[C@H]2CS1 (racemic) [Example 5, (±)-N-(3-((4aR,7aR)-2-amino-4a,5,6,7a-tetrahydro-4H-furo[2,3-d][1,3]thiazin-7a-yl)-4-fluorophenyl)picolinamide] |
| 6.03 | CC#Cc1cncc(-c2cc([C@@]34N=C(N)SC[C@@H]3CCO4)c(F)cc2F)c1 (racemic) [Example 8, (±)-(4aR,7aR)-7a-(2,4-difluoro-5-(5-(prop-1-ynyl)pyridin-3-yl)phenyl)-4a,5,6,7a-tetrahydro-4H-furo[2,3-d][1,3]thiazin-2-amine] |
| 6.00 | NC1=N[C@@]2(c3cc(-c4cncnc4)c(F)cc3F)OCCC[C@H]2CS1 [Example 11, (4aR,8aR)-8a-(2,4-difluoro-5-(pyrimidin-5-yl)phenyl)-4,4a,5,6,7,8a-hexahydropyrano[2,3-d][1,3]thiazin-2-amine] |

From patent publication US8598161B2, “Compounds for the reduction of beta-amyloid production” (Bristol-Myers Squibb Company, priority 2011, dated 2013)
